The values that follow come from article PMC5218480 (PLoS ONE, 2017).

This assay relates to MV-4-11 cells. As to the kind of experiment: Gene expression microarray analysis (Affymetrix PrimeView) and GSEA. Particulars: MV-4-11 cells, 48 hours. The assay is classed as cell-based, human. Set-up: RFU PODN (11730768_x_at) / Fold change /veh PODN (11730768_x_at) / RFU LINC00158 (11744669_a_at) / Fold change /veh LINC00158 (11744669_a_at) / RFU DUSP10 (11751237_a_at) / Fold change /veh DUSP10 (11751237_a_at) / RFU ID3 (11757404_x_at) / Fold change /veh ID3 (11757404_x_at) / RFU PLEKHG5 (11737974_s_at) / Fold change /veh PLEKHG5 (11737974_s_at) / RFU LRRC4B (11730491_at) / Fold change /veh LRRC4B (11730491_at) / RFU GIMAP4 (11747438_a_at) / Fold change /veh GIMAP4 (11747438_a_at) / RFU KRT8 (11758183_x_at) / Fold change /veh KRT8 (11758183_x_at) / RFU CNN1 (11734310_a_at) / Fold change /veh CNN1 (11734310_a_at) / RFU VPS37D (11726825_at) / Fold change /veh VPS37D (11726825_at) / RFU C10orf10 (11716522_x_at) / Fold change /veh C10orf10 (11716522_x_at) / RFU KIR2DL2 /// KIR2DL4 /// KIR2DL5A /// KIR2DL5B /// KIR2DS1 /// KIR2DS2 /// KIR2DS3 /// KIR2DS4 /// KIR3DL3 /// KIR3DL3 /// KIR3DS1 (11738374_at) / Fold change /veh KIR2DL2 /// KIR2DL4 /// KIR2DL5A /// KIR2DL5B /// KIR2DS1 /// KIR2DS2 /// KIR2DS3 /// KIR2DS4 /// KIR3DL3 /// KIR3DL3 /// KIR3DS1 (11738374_at) / RFU C1QL1 (11718748_at) / Fold change /veh C1QL1 (11718748_at) / RFU TMPRSS4 (11747572_a_at) / Fold change /veh TMPRSS4 (11747572_a_at) / RFU HAMP (11756126_x_at) / Fold change /veh HAMP (11756126_x_at) / RFU RNFT2 (11725882_a_at) / Fold change /veh RNFT2 (11725882_a_at) / RFU NR4A2 (11747474_a_at) / Fold change /veh NR4A2 (11747474_a_at) / RFU ABCC12 (11746883_a_at) / Fold change /veh ABCC12 (11746883_a_at) / RFU TMEM136 (11760407_x_at) / Fold change /veh TMEM136 (11760407_x_at) / RFU CLDN22 /// WWC2 (11732394_at) / Fold change /veh CLDN22 /// WWC2 (11732394_at) / RFU HLA-DPB1 (11760878_x_at) / Fold change /veh HLA-DPB1 (11760878_x_at) / RFU SPINT1 (11716480_a_at) / Fold change /veh SPINT1 (11716480_a_at) / RFU GAP43 (11754022_s_at) / Fold change /veh GAP43 (11754022_s_at) / RFU A4GNT (11735810_at) / Fold change /veh A4GNT (11735810_at) / RFU PRB3 (11715151_x_at) / Fold change /veh PRB3 (11715151_x_at) / RFU TUBB4B (11761932_at) / Fold change /veh TUBB4B (11761932_at) / RFU CAPN14 (11732068_a_at) / Fold change /veh CAPN14 (11732068_a_at) / RFU TMCC2 (11721928_a_at) / Fold change /veh TMCC2 (11721928_a_at) / RFU IRGQ (11745062_a_at) / Fold change /veh IRGQ (11745062_a_at) / RFU FAM174B (11720279_a_at) / Fold change /veh FAM174B (11720279_a_at) / RFU TMPRSS4 (11748680_a_at) / Fold change /veh TMPRSS4 (11748680_a_at) / RFU FAM212B (11763350_a_at) / Fold change /veh FAM212B (11763350_a_at) / RFU PLEKHG5 (11743358_a_at) / Fold change /veh PLEKHG5 (11743358_a_at) / RFU ZSCAN30 (11745921_a_at) / Fold change /veh ZSCAN30 (11745921_a_at) / RFU CMKLR1 (11741424_a_at) / Fold change /veh CMKLR1 (11741424_a_at) / RFU LOC101060620 /// MAPK8IP1 (11723275_at) / Fold change /veh LOC101060620 /// MAPK8IP1 (11723275_at) / RFU SPTSSB (11747773_x_at) / Fold change /veh SPTSSB (11747773_x_at) / RFU PRSS12 (11739890_at) / Fold change /veh PRSS12 (11739890_at) / RFU BIN1 (11741810_x_at) / Fold change /veh BIN1 (11741810_x_at) / RFU WNT11 (11732464_a_at) / Fold change /veh WNT11 (11732464_a_at) / RFU C10orf10 (11716521_a_at) / Fold change /veh C10orf10 (11716521_a_at) / RFU C5orf56 (11738089_at) / Fold change /veh C5orf56 (11738089_at) / RFU CYB561 (11721691_x_at) / Fold change /veh CYB561 (11721691_x_at) / RFU ANKRD19P (11752326_a_at) / Fold change /veh ANKRD19P (11752326_a_at) / RFU OR2T12 /// OR2T33 /// OR2T8 (11738714_s_at) / Fold change /veh OR2T12 /// OR2T33 /// OR2T8 (11738714_s_at) / RFU VCAN (11748164_a_at) / Fold change /veh VCAN (11748164_a_at) / RFU JSRP1 (11732532_at) / Fold change /veh JSRP1 (11732532_at) / RFU KRTAP10-11 (11738290_x_at) / Fold change /veh KRTAP10-11 (11738290_x_at) / RFU MYO3A (11730013_a_at) / Fold change /veh MYO3A (11730013_a_at) / RFU EBF3 (11725865_a_at) / Fold change /veh EBF3 (11725865_a_at) / RFU CAMK2N1 (11719241_x_at) / Fold change /veh CAMK2N1 (11719241_x_at) / RFU C5orf56 (11738088_a_at) / Fold change /veh C5orf56 (11738088_a_at) / RFU OLFML3 (11715873_a_at) / Fold change /veh OLFML3 (11715873_a_at) / RFU LOC100653217 /// NTM (11731650_a_at) / Fold change /veh LOC100653217 /// NTM (11731650_a_at) / RFU MAPK11 (11762145_a_at) / Fold change /veh MAPK11 (11762145_a_at) / RFU FIZ1 (11724087_x_at) / Fold change /veh FIZ1 (11724087_x_at) / RFU OASL (11726364_x_at) / Fold change /veh OASL (11726364_x_at) / RFU SOX15 (11748057_x_at) / Fold change /veh SOX15 (11748057_x_at) / RFU CD79A (11719716_a_at) / Fold change /veh CD79A (11719716_a_at) / RFU HIST1H1D (11736915_at) / Fold change /veh HIST1H1D (11736915_at) / RFU CASKIN2 (11723855_a_at) / Fold change /veh CASKIN2 (11723855_a_at) / RFU LOC730098 (11760151_x_at) / Fold change /veh LOC730098 (11760151_x_at) / RFU OR4N2 (11742367_at) / Fold change /veh OR4N2 (11742367_at) / RFU PRRT2 (11749266_a_at) / Fold change /veh PRRT2 (11749266_a_at) / RFU SNX32 (11753110_a_at) / Fold change /veh SNX32 (11753110_a_at) / RFU CDHR5 (11726645_a_at) / Fold change /veh CDHR5 (11726645_a_at) / RFU RCAN1 (11760418_a_at) / Fold change /veh RCAN1 (11760418_a_at) / RFU FAM167A (11723789_a_at) / Fold change /veh FAM167A (11723789_a_at) / RFU FAM26E (11764081_at) / Fold change /veh FAM26E (11764081_at) / RFU ISYNA1 (11749810_s_at) / Fold change /veh ISYNA1 (11749810_s_at) / RFU ACY1 (11761880_at) / Fold change /veh ACY1 (11761880_at) / RFU 11764098_at / Fold change /veh 11764098_at / RFU SAMD14 (11745864_x_at) / Fold change /veh SAMD14 (11745864_x_at) / RFU NPB (11741838_a_at) / Fold change /veh NPB (11741838_a_at) / RFU TMPRSS6 (11731388_a_at) / Fold change /veh TMPRSS6 (11731388_a_at) / RFU KRTAP10-2 (11738614_at) / Fold change /veh KRTAP10-2 (11738614_at) / RFU ARHGAP8 /// PRR5-ARHGAP8 (11727945_x_at) / Fold change /veh ARHGAP8 /// PRR5-ARHGAP8 (11727945_x_at) / RFU KRTAP5-7 /// NADSYN1 (11734609_at) / Fold change /veh KRTAP5-7 /// NADSYN1 (11734609_at) / RFU RASL12 (11751679_a_at) / Fold change /veh RASL12 (11751679_a_at) / RFU CDKN2B (11736163_a_at) / Fold change /veh CDKN2B (11736163_a_at) / RFU PRF1 (11729649_at) / Fold change /veh PRF1 (11729649_at) / RFU, ZNF638 /// ZNF638-IT1 / Fold change vs veh, ZNF638 /// ZNF638-IT1 / RFU, PANK3 / Fold change vs veh, PANK3 / RFU, SH3YL1 / Fold change vs veh, SH3YL1 / RFU, ZEB2 / Fold change vs veh, ZEB2 / RFU, NRIP1 / Fold change vs veh, NRIP1 / RFU, PTTG1IP / Fold change vs veh, PTTG1IP / RFU, CAPN2 / Fold change vs veh, CAPN2 / RFU, MED14 / Fold change vs veh, MED14 / RFU, SNORA58 / Fold change vs veh, SNORA58 / RFU, C1orf63 / Fold change vs veh, C1orf63 / RFU, LRRFIP1 / Fold change vs veh, LRRFIP1 / RFU, NDUFAF7 / Fold change vs veh, NDUFAF7 / RFU, SLC12A2 / Fold change vs veh, SLC12A2 / RFU, IBTK / Fold change vs veh, IBTK / RFU, ESF1 / Fold change vs veh, ESF1 / Fold change vs veh, TMEM50B / RFU, TAOK1 / Fold change vs veh, TAOK1 / RFU, ACBD3 / Fold change vs veh, ACBD3 / RFU, TMA16 / Fold change vs veh, TMA16 / RFU, RWDD3 / Fold change vs veh, RWDD3 / RFU, BCAT1 / Fold change vs veh, BCAT1 / RFU, EDEM3 / Fold change vs veh, EDEM3 / RFU, TMEM33 / Fold change vs veh, TMEM33 / RFU, WDR75 / Fold change vs veh, WDR75 / RFU, AHCTF1 / Fold change vs veh, AHCTF1 / RFU, TFRC / Fold change vs veh, TFRC / RFU, ZDHHC17 / Fold change vs veh, ZDHHC17 / RFU, NOM1 / Fold change vs veh, NOM1 / RFU, ARL8B / Fold change vs veh, ARL8B / RFU, ZBTB11 / Fold change vs veh, ZBTB11 / RFU, TAMM41 / Fold change vs veh, TAMM41 / RFU, KIAA1704 /// LOC100996395 / Fold change vs veh, KIAA1704 /// LOC100996395 / RFU, ING1 / Fold change vs veh, ING1 / RFU, TRMT61B / Fold change vs veh, TRMT61B / RFU, FUBP3 / Fold change vs veh, FUBP3 / RFU, TP53 / Fold change vs veh, TP53 / RFU, TNKS2 / Fold change vs veh, TNKS2 / RFU, ZFP14 / Fold change vs veh, ZFP14 / RFU, ACTR2 / Fold change vs veh, ACTR2 / RFU, PPP3R1 / Fold change vs veh, PPP3R1 / RFU, PIK3R1 / Fold change vs veh, PIK3R1 / RFU, HNRNPA1 / Fold change vs veh, HNRNPA1 / RFU, RNF170 / Fold change vs veh, RNF170 / RFU, ZNF28 / Fold change vs veh, ZNF28 / RFU, RNGTT / Fold change vs veh, RNGTT / RFU, OGT / Fold change vs veh, OGT / RFU, BRD1 / Fold change vs veh, BRD1 / RFU, MARS / Fold change vs veh, MARS / RFU, ZNF655 / Fold change vs veh, ZNF655 / RFU, FAHD1 / Fold change vs veh, FAHD1 / RFU, BDP1 / Fold change vs veh, BDP1 / RFU, LRRCC1 / Fold change vs veh, LRRCC1 / RFU, ARID1A / Fold change vs veh, ARID1A / RFU, ZNF146 / Fold change vs veh, ZNF146 / RFU, ZNF330 / Fold change vs veh, ZNF330 / RFU, GPN3 / Fold change vs veh, GPN3 / RFU, C9orf123 / Fold change vs veh, C9orf123 / RFU, N4BP2L2 / Fold change vs veh, N4BP2L2 / RFU, ARFIP1 / Fold change vs veh, ARFIP1 / RFU, FAM179B / Fold change vs veh, FAM179B / RFU, BCL10 / Fold change vs veh, BCL10 / RFU, UHRF1BP1L / Fold change vs veh, UHRF1BP1L / RFU, BET1 / Fold change vs veh, BET1 / RFU, CNOT2 / Fold change vs veh, CNOT2 / RFU, ZNF268 / Fold change vs veh, ZNF268 / Fold change vs veh, ZNF507 / RFU, DGCR2 / Fold change vs veh, DGCR2 / RFU, WDSUB1 / Fold change vs veh, WDSUB1 / Fold change vs veh, HSP90B1 /// MIR3652 / RFU, ADSS / Fold change vs veh, ADSS / RFU, GK / Fold change vs veh, GK / RFU, ZNF148 / Fold change vs veh, ZNF148 / RFU, TAF9 / Fold change vs veh, TAF9 / RFU, SLC1A5 / Fold change vs veh, SLC1A5 / RFU, SLMO2 / Fold change vs veh, SLMO2 / RFU, ABCC4 / Fold change vs veh, ABCC4 / RFU, LOC101060439 /// RAP1B / Fold change vs veh, LOC101060439 /// RAP1B / RFU, RFX7 / Fold change vs veh, RFX7 / RFU, GTPBP10 / Fold change vs veh, GTPBP10 / RFU, CNEP1R1 / Fold change vs veh, CNEP1R1 / RFU, BIVM-ERCC5 /// ERCC5 / Fold change vs veh, BIVM-ERCC5 /// ERCC5 / RFU, ILF3 / Fold change vs veh, ILF3 / RFU 11762660_at / Fold change /veh 11762660_at / RFU VCAN (11757783_s_at) / Fold change /veh VCAN (11757783_s_at) / RFU DDX43 (11728927_at) / Fold change /veh DDX43 (11728927_at) / RFU KRT8 (11758188_x_at) / Fold change /veh KRT8 (11758188_x_at) / RFU NKD1 (11759106_at) / Fold change /veh NKD1 (11759106_at) / RFU SRD5A1 (11742802_a_at) / Fold change /veh SRD5A1 (11742802_a_at) / RFU TPSAB1 /// TPSB2 (11721975_s_at) / Fold change /veh TPSAB1 /// TPSB2 (11721975_s_at) / RFU GSTM3 (11746129_a_at) / Fold change /veh GSTM3 (11746129_a_at) / RFU IL23R (11737362_x_at) / Fold change /veh IL23R (11737362_x_at) / RFU TMEM51 (11727254_a_at) / Fold change /veh TMEM51 (11727254_a_at) / RFU PIWIL2 (11732686_x_at) / Fold change /veh PIWIL2 (11732686_x_at) / RFU ORM1 (11744905_x_at) / Fold change /veh ORM1 (11744905_x_at) / RFU CCDC152 (11743942_at) / Fold change /veh CCDC152 (11743942_at) / RFU ECM1 (11717891_a_at) / Fold change /veh ECM1 (11717891_a_at) / RFU IL23R (11748794_a_at) / Fold change /veh IL23R (11748794_a_at) / RFU TNFAIP8L3 (11732012_x_at) / Fold change /veh TNFAIP8L3 (11732012_x_at) / RFU MBOAT4 (11741988_at) / Fold change /veh MBOAT4 (11741988_at) / RFU 11764193_at / Fold change /veh 11764193_at / RFU TMEM53 (11763286_at) / Fold change /veh TMEM53 (11763286_at) / RFU MAGEB2 (11727129_at) / Fold change /veh MAGEB2 (11727129_at) / RFU TMEM200A (11744735_a_at) / Fold change /veh TMEM200A (11744735_a_at) / RFU CCDC152 (11751479_a_at) / Fold change /veh CCDC152 (11751479_a_at) / RFU FAM211A (11726209_a_at) / Fold change /veh FAM211A (11726209_a_at) / RFU RGS16 (11746705_a_at) / Fold change /veh RGS16 (11746705_a_at) / RFU VCAN (11755009_s_at) / Fold change /veh VCAN (11755009_s_at) / RFU RHOB (11743442_s_at) / Fold change /veh RHOB (11743442_s_at) / RFU RGS16 (11720943_a_at) / Fold change /veh RGS16 (11720943_a_at) / RFU RGS16 (11720944_at) / Fold change /veh RGS16 (11720944_at) / RFU, VPS4B / Fold change vs veh, VPS4B / RFU, CREB1 / Fold change vs veh, CREB1 / RFU, DNAJC13 / Fold change vs veh, DNAJC13 / RFU, GNAQ / Fold change vs veh, GNAQ / RFU, CDK5R1 / Fold change vs veh, CDK5R1 / RFU, ZRANB3 / Fold change vs veh, ZRANB3 / RFU, CUL4A / Fold change vs veh, CUL4A / RFU, CCNY / Fold change vs veh, CCNY / RFU, UFL1 / Fold change vs veh, UFL1 / RFU, COG3 / Fold change vs veh, COG3 / RFU, DIAPH2 / Fold change vs veh, DIAPH2 / RFU, SKA2 / Fold change vs veh, SKA2 / RFU, AFF3 / Fold change vs veh, AFF3 / RFU, LMF1 / Fold change vs veh, LMF1 / RFU, IPO11 / Fold change vs veh, IPO11 / RFU, DFFB / Fold change vs veh, DFFB / RFU, FOXP1 / Fold change vs veh, FOXP1 / RFU, CARD8 / Fold change vs veh, CARD8 / RFU, STRN3 / Fold change vs veh, STRN3 / RFU, ADK / Fold change vs veh, ADK / RFU, RASSF2 / Fold change vs veh, RASSF2 / RFU, WIPF1 / Fold change vs veh, WIPF1 / RFU, LARP1B / Fold change vs veh, LARP1B / RFU, RASA1 / Fold change vs veh, RASA1 / RFU, RB1 / Fold change vs veh, RB1 / RFU, PPFIA1 / Fold change vs veh, PPFIA1 / RFU, MAT2A / Fold change vs veh, MAT2A / RFU, CCT5 / Fold change vs veh, CCT5 / RFU, WDR92 / Fold change vs veh, WDR92 / RFU, CUX1 / Fold change vs veh, CUX1 / RFU, TTC7A / Fold change vs veh, TTC7A / RFU, TMEM135 / Fold change vs veh, TMEM135 / RFU, DEPTOR / Fold change vs veh, DEPTOR / RFU, CPM / Fold change vs veh, CPM / RFU, DNAJB6 / Fold change vs veh, DNAJB6 / RFU, CACNA2D3 / Fold change vs veh, CACNA2D3 / RFU, DTX4 / Fold change vs veh, DTX4 / RFU, TFCP2 / Fold change vs veh, TFCP2 / RFU, GMCL1 /// GMCL1P1 / Fold change vs veh, GMCL1 /// GMCL1P1 / RFU, AEBP2 / Fold change vs veh, AEBP2 / RFU, SNHG1 /// SNORD22 /// SNORD25 /// SNORD26 /// SNORD27 /// SNORD28 /// SNORD29 /// SNORD31 / Fold change vs veh, SNHG1 /// SNORD22 /// SNORD25 /// SNORD26 /// SNORD27 /// SNORD28 /// SNORD29 /// SNORD31 / Fold change (Aza/veh), C12orf56 (ProbeSet 11735607_a_at) / Fold change (ACY-1035/veh), C12orf56 (ProbeSet 11735607_a_at) / Fold change (Aza/veh), FGFR1OP (ProbeSet 11751329_s_at) / Fold change (ACY-1035/veh), FGFR1OP (ProbeSet 11751329_s_at) / Fold change (Aza/veh), VPS36 (ProbeSet 11739960_a_at) / Fold change (ACY-1035/veh), VPS36 (ProbeSet 11739960_a_at) / RFU SYPL1 (11715823_x_at) / Fold change /veh SYPL1 (11715823_x_at) / RFU IGFBP7 (11715501_s_at) / Fold change /veh IGFBP7 (11715501_s_at) / RFU REEP3 (11722064_at) / Fold change /veh REEP3 (11722064_at) / RFU IGLL1 (11728026_x_at) / Fold change /veh IGLL1 (11728026_x_at): dose or concentration left out as unconfirmed.

Turning to `Nc1ccc(-c2cccs2)cc1NC(=O)c1ccc2c(c1)cc(C1CC1)n2CCN1CCOCC1` [ACY-1035], the “RFU LOC730098 (11760151_x_at)” value was 35.48 RFU.
